From patent US10722514B2 (FLX Bio, Inc., priority 2017, dated 2020) come the findings set out here.

In general, IC50 refers to the concentration that inhibits the measured activity by half.

In this assay the target is T1, recombinant full-length USP7 (Homo sapiens, UniProt Q93009).
T1 construct: A 25 μl reaction volume containing recombinant full-length USP7 (62 pM)
The experiment in a line: USP7-mediated ubiquitin-rhodamine cleavage assay. The conditions noted are these: recombinant full-length USP7 62 pM, ubiquitin-rhodamine 100 nM, 1 hour reaction at room temperature. Format: biochemical. The method in brief: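 IC50 values came from fluorescence measured after a 1 h room-temperature reaction of 62 pM enzyme with 100 nM ubiquitin-rhodamine, following 30 min compound preincubation; fits used four parameters.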

[1] abbreviates: 30-minute pre-incubation, read-out: Potency (USP7 IC50).
Where [2] appears, read: 30-minute incubation with compound, read-out: Potency: USP7 IC50.

The structures appear in SMILES notation. Where two headings read alike, the source gives them in different places.

T1 sequence (Q93009 whole entry): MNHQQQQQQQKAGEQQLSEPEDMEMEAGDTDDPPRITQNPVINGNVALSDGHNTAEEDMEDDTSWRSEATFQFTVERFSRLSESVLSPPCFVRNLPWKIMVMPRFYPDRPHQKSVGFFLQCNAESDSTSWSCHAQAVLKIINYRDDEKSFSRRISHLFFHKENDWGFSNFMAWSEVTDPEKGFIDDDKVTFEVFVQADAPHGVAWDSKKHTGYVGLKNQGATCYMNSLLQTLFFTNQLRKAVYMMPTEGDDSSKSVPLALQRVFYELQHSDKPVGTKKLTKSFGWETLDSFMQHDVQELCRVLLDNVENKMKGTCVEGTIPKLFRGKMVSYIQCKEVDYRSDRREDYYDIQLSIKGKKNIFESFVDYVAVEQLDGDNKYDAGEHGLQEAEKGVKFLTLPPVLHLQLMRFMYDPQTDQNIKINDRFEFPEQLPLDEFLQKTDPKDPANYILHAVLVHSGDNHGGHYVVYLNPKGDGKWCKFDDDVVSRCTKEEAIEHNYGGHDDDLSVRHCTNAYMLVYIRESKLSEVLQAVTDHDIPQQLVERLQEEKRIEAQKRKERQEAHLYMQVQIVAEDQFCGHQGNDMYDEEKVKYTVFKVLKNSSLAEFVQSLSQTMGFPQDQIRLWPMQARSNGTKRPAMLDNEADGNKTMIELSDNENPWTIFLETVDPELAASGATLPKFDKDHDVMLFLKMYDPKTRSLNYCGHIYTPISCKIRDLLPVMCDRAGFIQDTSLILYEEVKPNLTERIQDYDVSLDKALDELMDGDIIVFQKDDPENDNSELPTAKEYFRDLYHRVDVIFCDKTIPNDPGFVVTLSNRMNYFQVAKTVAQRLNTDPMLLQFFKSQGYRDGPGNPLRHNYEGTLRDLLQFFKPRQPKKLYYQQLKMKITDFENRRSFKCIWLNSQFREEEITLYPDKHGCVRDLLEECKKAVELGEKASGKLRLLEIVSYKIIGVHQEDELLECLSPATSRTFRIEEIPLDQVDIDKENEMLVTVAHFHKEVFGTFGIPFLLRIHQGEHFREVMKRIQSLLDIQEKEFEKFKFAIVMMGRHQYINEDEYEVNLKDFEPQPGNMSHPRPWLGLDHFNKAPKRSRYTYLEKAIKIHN

As to `Cc1cc(C(F)(F)F)cc(-c2ccnc3cc(Cn4c(=O)c(F)cn(C)c4=O)sc23)c1O[C@H]1CCCNC1` [Example 460, 5-fluoro-1-methyl-3-[[7-[3-methyl-2-[[(3S)-3-piperidyl]oxy]-5-(trifluoromethyl)phenyl]thieno[3,2-b]pyridin-2-yl]methyl]pyrimidine-2,4-dione], under setting [1], the 50% inhibitory concentration (IC50) is below 1 µM.

`Cc1cc(Cl)cc(-c2ccnc3cc(CCN4C(=O)c5ccccc5S4(=O)=O)sc23)c1O[C@@H]1CNC[C@@H]1F` [Example 139, 2-(2-(7-(5-Chloro-2-(((3R,4S)-4-fluoropyrrolidin-3-yl)oxy)-3-methylphenyl)thieno[3,2-b]pyridin-2-yl)ethyl)benzo[d]isothiazol-3(2H)-one 1,1-dioxide]: under setting [2], the IC50 was in the range of 10 to 30 µM. With `Cc1cc(Cl)cc(-c2ccnc3cc(Cn4c(=O)ccn(CC(F)(F)F)c4=O)sc23)c1O[C@H]1CCCNCC1` [Example 656, 3-[[7-[2-[(4S)-azepan-4-yl]oxy-5-chloro-3-methyl-phenyl]thieno[3,2-b]pyridin-2-yl]methyl]-1-(2,2,2-trifluoroethyl)pyrimidine-2,4-dione; 2,2,2-trifluoroacetic acid], the half-inhibitory concentration (IC50) under setting [1] is below 1 µM. On to `Cc1cc(Cl)cc(-c2ccnc3cc(CN4C(=O)CCC4=O)sc23)c1O[C@@H]1CN(CC(C)(C)C)C[C@@H]1F` [Example 336, 1-[[7-[5-chloro-2-[(3R,4S)-1-(2,2-dimethylpropyl)-4-fluoro-pyrrolidin-3-yl]oxy-3-methyl-phenyl]thieno[3,2-b]pyridin-2-yl]methyl]pyrrolidine-2,5-dione], for which, under setting [2], the IC50 is below 1 µM.

Take `Cc1cc(Cl)cc(-c2ccnc3cc(CO)sc23)c1O[C@@H]1CCC[C@@H]1N` [Example 74, (7-(2-(((1R,2S)-2-Aminocyclopentyl)oxy)-5-chloro-3-methylphenyl)thieno[3,2-b]pyridin-2-yl)methanol]: the half-inhibitory concentration (IC50) under setting [2] was in the range of 10 to 30 µM. On the same count and under the same terms, the value for `Cc1cc(Cl)cc(-c2ccnc3cc([C@H](C)N4C(=O)CCC4=O)sc23)c1O[C@@H]1CNC[C@@H]1F` [Example 117, 1-((S)-1-(7-(5-Chloro-2-(((3R,4S)-4-fluoropyrrolidin-3-yl)oxy)-3-methylphenyl)thieno[3,2-b]pyridin-2-yl)ethyl)pyrrolidine-2,5-dione] was below 1 µM. In the case of `CC[C@@H]1C[C@H](Oc2c(C)cc(Cl)cc2-c2ccnc3cc(Cn4c(=O)ccn(C)c4=O)sc23)CCN1` [Example 611, 3-[[7-[5-chloro-2-[[(2R,4R)-2-ethyl-4-piperidyl]oxy]-3-methyl-phenyl]thieno[3,2-b]pyridin-2-yl]methyl]-1-methyl-pyrimidine-2,4-dione], the IC50 under setting [1] was below 1 µM. Take `Cc1cc(Cl)cc(-c2ccnc3cc(Cn4c(=O)ccn(C)c4=O)sc23)c1O[C@@H]1CC[C@](C)(N)C1` [Example 519, 3-[[7-[2-[(1R,3S)-3-amino-3-methyl-cyclopentoxy]-5-chloro-3-methyl-phenyl]thieno[3,2-b]pyridin-2-yl]methyl]-1-methyl-pyrimidine-2,4-dione; 2,2,2-trifluoroacetic acid]: the IC50 under setting [1] was below 1 µM. As for `CCC(O)c1cc2nccc(-c3cc(Cl)cc(C)c3O[C@H]3CCNC3)c2s1` (stereo partly drawn) [Example 50, 1-(7-(5-Chloro-3-methyl-2-(((S)-pyrrolidin-3-yl)oxy)phenyl)thieno[3,2-b]pyridin-2-yl)propan-1-ol], under setting [2], the IC50 was in the range of 1 to 10 µM.

With `Cc1cc(Cl)cc(-c2ccnc3cc(Cn4c(=O)ccn(C)c4=O)sc23)c1OC1CCCN(CCO)C1` (stereo not shown) [Example 506, 3-[[7-[5-chloro-2-[[1-(2-hydroxyethyl)-3-piperidyl]oxy]-3-methyl-phenyl]thieno[3,2-b]pyridin-2-yl]methyl]-1-methyl-pyrimidine-2,4-dione], the half-maximal inhibitory concentration (IC50) under setting [1] was below 1 µM.
